Where two headings read alike, the source gives them in different places.
Tested on: HCV NS5A protein in 9-13 replicon cells
Experiment: Quantitative Western blot replicon assay (HEPC_REPLICON-ICWESTERN)
Assay type: cell-based, Hepatitis C virus (HCV)
Details: Hepatitis C virus, read-out: HEPC_REPLICON-ICWESTERN Result Value (IC50)
Procedure: Alternatively, the inhibitory activity of the metabolically active agents of the prodrugs can be confirmed using a quantitative Western immunoblot assay utilizing antibodies specific for HCV non-structural proteins, such as NS3, NS4A NS5A and NS5B. In one embodiment of this assay, replicon cells are treated with varying concentrations of test prodrug to determine the concentration of the metabolically active agent of the test prodrug that yields a 50% reduction in the amount of a non-structural protein produced as compared to a control sample (IC50). A single non-structural protein may be quantified or multiple non-structural proteins may be quantified. Antibodies suitable for carrying out such immunoblot assays are available commercially (e.g., from BIODESIGN International, Saco, Me.).
Certain prodrugs of the invention, which may inhibit HCV translation or replication prior to metablism and/or are metabolized into active agents, were also tested for their ability to inhibit HCV replication using a quantitative Western blot analysis with antibodies specific for the HCV NS5A or other non-structural proteins. Actively dividing 9-13 replicon cells were seeded into 6-well plates at a density of 1×10^5 cells/well in a volume of 2 ml/well and incubated at 37° C. and 5% CO2 for 24 hours. Various concentrations of test prodrugs (in a volume of 10 ul) were added to the wells and the cells incubated for another 48 hours. Protein samples were prepared from the cultured cells, resolved on a SDS-PAGE gel and transferred to a nitrocellulose membrane. The membrane was blocked with 5% non-fat milk in PBS for 1 hour at room temperature. Primary antibody (anti NS5A antibody; BIODESIGN International, Saco, Me.) incubation was performed for 1 hour at room temperature, after which the membrane was washed 3 times (for 15 min per time) with PBST (PBS plus 0.1% Tween 20). Horseradish peroxidase conjugated secondary antibody incubation was performed for 1 hour at room temperature and the membrane was washed 3 times (for 15 min per time) with PBST. The membrane was then soaked in substrate solution (Pierce) and exposed to a film or quantified using an imager. In this assay, the amount of test prodrug that is believed to be transformed into an active agent under the given conditions that yielded a 50% reduction in the amount of NS5A protein translated as compared to a control sample (IC50) was determined.

[1] = 9-13 replicon cells, 50% reduction in NS5A protein

SMILES	IC50 [1] [µM]	IC50 [µM]
NC(CCC(=O)O)C(=O)CCN(C(=O)C(Cl)Cl)c1ccnc(-c2cc(-c3c(Cl)cccc3Cl)no2)c1 (stereo not drawn) [Cpd. No. 4, 4-Amino-7-(2,2-dichloro-N-(2-(3-(2,6-dichlorophenyl)isoxazol-5-yl)pyridin-4-yl)acetamido)-5-oxoheptanoic Acid]	< 1	–
CC(C)(C)OC(=O)N1CC(O)C[C@H]1C(=O)NCCN(C(=O)C(Cl)Cl)c1cccc(-c2cc(-c3c(Cl)cccc3Cl)no2)c1 (stereo partly drawn) [Cpd. No. 33, (2S)-tert-Butyl 2-(2-(2,2-Dichloro-N-(3-(3-(2,6-dichlorophenyl)isoxazol-5-yl)phenyl)acetamido)ethylcarbamoyl)-4-hydroxypyrrolidine-1-carboxylate]	> 20	–
O=C(NCCN(C(=O)C(Cl)Cl)c1cccc(-c2cc(-c3c(Cl)cccc3Cl)no2)c1)[C@@H]1CC(O)CN1 (stereo partly drawn) [Cpd. No. 34, (2S)-N-(2-(2,2-Dichloro-N-(3-(3-(2,6-dichlorophenyl)isoxazol-5-yl)phenyl)acetamido)ethyl)-4-hydroxypyrrolidine-2-carboxamide]	> 20	–
CNCC(=O)N[C@H](CN(C(=O)C(Cl)Cl)c1cccc(-c2cc(-c3c(Cl)cccc3Cl)no2)c1)C(C)C [Cpd. No. 43, (S)-2,2-Dichloro-N-(3-(3-(2,6-dichlorophenyl)isoxazol-5-yl)phenyl)-N-(3-methyl-2-(2-(methylamino)acetamido)butyl)acetamide]	1 to 20	–
CCC(C)OCN(C(=O)C(Cl)Cl)c1ccnc(-c2cc(-c3c(Cl)cccc3Cl)no2)c1 (stereo not drawn) [Cpd. No. 10, N-(sec-Butoxymethyl)-2,2-dichloro-N-(2-(3-(2,6-dichlorophenyl)isoxazol-5-yl)pyridin-4-yl)acetamide]	1 to 20	–
CCOC(=O)CN(C(=O)C(Cl)Cl)c1ccnc(-c2cc(-c3c(Cl)cccc3Cl)no2)c1 [Cpd. No. 8, Ethyl 2-(2,2-Dichloro-N-(2-(3-(2,6-dichlorophenyl)isoxazol-5-yl)pyridin-4-yl)acetamido)acetate]	1 to 20	–
CC(C)[C@H](N)C(=O)NCCN(C(=O)C(Cl)Cl)c1cccc(-c2cc(-c3c(Cl)cccc3Cl)no2)c1 [Cpd. No. 37, (S)-2-Amino-N-(2-(2,2-dichloro-N-(3-(3-(2,6-dichlorophenyl)isoxazol-5-yl)phenyl)acetamido)ethyl)-3-methylbutanamide]	1 to 20	–
CC(C)[C@@H](CN(C(=O)C(Cl)Cl)c1cccc(-c2cc(-c3c(Cl)cccc3Cl)no2)c1)NC(=O)C1CC(O)CN1C(=O)OC(C)(C)C (stereo partly drawn) [Cpd. No. 24, tert-Butyl 2-((S)-1-(2,2-Dichloro-N-(3-(3-(2,6-dichlorophenyl)isoxazol-5-yl)phenyl)acetamido)-3-methylbutan-2-ylcarbamoyl)-4-hydroxypyrrolidine-1-carboxylate]	1 to 20	–
N#CCCN(C(=O)C(Cl)Cl)c1cccc(-c2cc(-c3c(Cl)cccc3Cl)no2)c1 [Cpd. No. 13, 2,2-Dichloro-N-(2-cyanoethyl)-N-(3-(3-(2,6-dichlorophenyl)isoxazol-5-yl)phenyl)acetamide]	> 20	–
COC(=O)CCN(C(=O)C(Cl)Cl)c1cccc(-c2cc(-c3c(Cl)cccc3Cl)no2)c1 [Cpd. No. 12, Methyl 3-(2,2-Dichloro-N-(3-(3-(2,6-dichlorophenyl)isoxazol-5-yl)phenyl)acetamido)propanoate]	> 20	–
CC(C)[C@@H](CN(C(=O)C(Cl)Cl)c1cccc(-c2cc(-c3c(Cl)cccc3Cl)no2)c1)NC(=O)[C@@H](N)c1ccccc1 [Cpd. No. 40, N-((S)-2-((S)-2-Amino-2-phenylacetamido)-3-methylbutyl)-2,2-dichloro-N-(3-(3-(2,6-dichlorophenyl)isoxazol-5-yl)phenyl)acetamide]	> 20	–
CC(C)[C@@H](CN(C(=O)C(Cl)Cl)c1cccc(-c2cc(-c3c(Cl)cccc3Cl)no2)c1)NC(=O)[C@H](CCC(=O)OC(C)(C)C)NC(=O)OC(C)(C)C [Cpd. No. 26, (S)-tert-Butyl 4-(tert-Butoxycarbonylamino)-5-((S)-1-(2,2-dichloro-N-(3-(3-(2,6-dichlorophenyl)isoxazol-5-yl)phenyl)acetamido)-3-methylbutan-2-ylamino)-5-oxopentanoate]	1 to 20	–
CC(C)[C@@H](CN(C(=O)C(Cl)Cl)c1cccc(-c2cc(-c3c(Cl)cccc3Cl)no2)c1)NC(=O)OC(C)(C)C [Cpd. No. 21, (S)-tert-Butyl 1-(2,2-Dichloro-N-(3-(3-(2,6-dichlorophenyl)isoxazol-5-yl)phenyl)acetamido)-3-methylbutan-2-ylcarbamate]	1 to 20	–
CCOP(=O)(CCC(=O)CCN(C(=O)C(Cl)Cl)c1ccnc(-c2cc(-c3c(Cl)cccc3Cl)no2)c1)OCC [Cpd. No. 11, Diethyl 5-(2,2-Dichloro-N-(2-(3-(2,6-dichlorophenyl)isoxazol-5-yl)pyridin-4-yl)acetamido)-3-oxopentylphosphonate]	–	< 1
CC[C@H](C)[C@H](N)C(=O)NCCN(C(=O)C(Cl)Cl)c1cccc(-c2cc(-c3c(Cl)cccc3Cl)no2)c1 [Cpd. No. 38, (2S,3S)-2-Amino-N-(2-(2,2-dichloro-N-(3-(3-(2,6-dichlorophenyl)isoxazol-5-yl)phenyl)acetamido)ethyl)-3-methylpentanamide]	1 to 20	–
CC(C)[C@@H](CN(C(=O)C(Cl)Cl)c1cccc(-c2cc(-c3c(Cl)cccc3Cl)no2)c1)NC(=O)C1CC(O)CN1 (stereo partly drawn) [Cpd. No. 42, N-((S)-1-(2,2-Dichloro-N-(3-(3-(2,6-dichlorophenyl)isoxazol-5-yl)phenyl)acetamido)-3-methylbutan-2-yl)-4-hydroxypyrrolidine-2-carboxamide]	> 20	–
N[C@@H](CCC(=O)O)C(=O)NCCN(C(=O)C(Cl)Cl)c1cccc(-c2cc(-c3c(Cl)cccc3Cl)no2)c1 [Cpd. No. 35, (S)-4-Amino-5-(2-(2,2-dichloro-N-(3-(3-(2,6-dichlorophenyl)isoxazol-5-yl)phenyl)acetamido)ethylamino)-5-oxopentanoic Acid]	> 20	–
CC(C)[C@@H](CN(C(=O)C(Cl)Cl)c1cccc(-c2cc(-c3c(Cl)cccc3Cl)no2)c1)NC(=O)[C@@H](NC(=O)OC(C)(C)C)c1ccccc1 [Cpd. No. 22, tert-Butyl (S)-2-((S)-1-(2,2-Dichloro-N-(3-(3-(2,6-dichlorophenyl)isoxazol-5-yl)phenyl)acetamido)-3-methylbutan-2-ylamino)-2-oxo-1-phenylethylcarbamate]	1 to 20	–
CC(C)(C)OC(=O)NCCN(C(=O)C(Cl)Cl)c1cccc(-c2cc(-c3c(Cl)cccc3Cl)no2)c1 [Cpd. No. 14, tert-Butyl 2-(2,2-Dichloro-N-(3-(3-(2,6-dichlorophenyl)isoxazol-5-yl)phenyl)acetamido)ethylcarbamate]	> 20	–
CC(C)(C)OC(=O)CC[C@H](NC(=O)OC(C)(C)C)C(=O)NCCN(C(=O)C(Cl)Cl)c1cccc(-c2cc(-c3c(Cl)cccc3Cl)no2)c1 [Cpd. No. 32, (S)-tert-Butyl 4-(tert-Butoxycarbonylamino)-5-(2-(2,2-dichloro-N-(3-(3-(2,6-dichlorophenyl)isoxazol-5-yl)phenyl)acetamido)ethylamino)-5-oxopentanoate]	> 20	–
CC(C)[C@H](N)CN(C(=O)C(Cl)Cl)c1cccc(-c2cc(-c3c(Cl)cccc3Cl)no2)c1 [Cpd. No. 39, (S)-N-(2-Amino-3-methylbutyl)-2,2-dichloro-N-(3-(3-(2,6-dichlorophenyl)isoxazol-5-yl)phenyl)acetamide]	1 to 20	–

Source: patent US7498353B2, “Heterocyclic anti-viral compounds comprising metabolizable moieties and their uses” (priority 2005, dated 2009)
